What was measured:
[1] = cited from earlier work
[2] = test system: patients with primary hypertension and inadequate BP control; assay: Precision dosing trial of amlodipine with home blood pressure and e-diary side effects (Example 1)

CCOC(=O)C1=C(COCCN)NC(C)=C(C(=O)OC)C1c1ccccc1Cl (stereo not shown) [amlodipine]
dose linearity of pharmacokinetics ([1]; FIG. 1, Williams et al 1988): linear across a wide range of doses | increase in total exposure ([1]; elderly): up to 60% | variance in average amlodipine blood levels between subjects ([1]; steady-state, same dose): up to 30% | toxic related side effects leading to treatment discontinuation ([2]; during the trial to date): no toxic related side effects leading to treatment discontinuation were observed | end mean DBP ([2]; end of study, baseline mean DBP 88 mmHg, 109 patients begun, 39 completed, linear mixed model estimate): 81 mmHg | end mean SBP ([2]; end of study, baseline mean SBP 146 mmHg, 109 patients begun, 39 completed, linear mixed model estimate): 133 mmHg | side effects (oedema) by VAS score ([2]; single patient, final dose of 10 mg, VAS 0-100 scale (1-25 mild, 26-50 moderate)): mild to moderate

Reference: patent publication US12653811B2 (CLOSED LOOP MEDICINE LTD, priority 2020, dated 2026)
